Results published in the NIST ThermoML archive (doi:10.1021/je400332j).

Experiment: xn = mol fraction of the nth substance listed
Conditions: 101 kPa, Liquid; for viscosity: Concentric cylinders viscometry; for mass density: Vibrating tube method

CCCn1cc[n+](C)c1.F[B-](F)(F)F [1-propyl-3-methylimidazolium tetrafluoroborate] + CCCCCCn1cc[n+](C)c1.F[B-](F)(F)F
Conditions	mass density [kg/m3]	viscosity [mPa·s]
293.15 K, x1 = 0.1006	1154.7	257.8
293.15 K, x1 = 0.2005	1162.5	233.5
293.15 K, x1 = 0.2995	1170.4	212.7
293.15 K, x1 = 0.3996	1179.1	195.9
293.15 K, x1 = 0.4991	1188.1	176.5
293.15 K, x1 = 0.601	1197.2	158.4
293.15 K, x1 = 0.7001	1207.1	141.4
293.15 K, x1 = 0.8	1217.3	125.1
293.15 K, x1 = 0.8987	1228	110.2
293.15 K, x1 = 1	1239.3	95.44
298.15 K, x1 = 0.1006	1151.2	190.4
298.15 K, x1 = 0.2005	1159.1	173.1
298.15 K, x1 = 0.2995	1167.1	158.5
298.15 K, x1 = 0.3996	1175.6	146.3
298.15 K, x1 = 0.4991	1184.5	132.5
298.15 K, x1 = 0.601	1193.7	119.6
298.15 K, x1 = 0.7001	1203.6	107.2
298.15 K, x1 = 0.8	1213.9	95.66
298.15 K, x1 = 0.8987	1224.5	84.81
298.15 K, x1 = 1	1235.7	74.04
303.15 K, x1 = 0.1006	1147.8	143.5
303.15 K, x1 = 0.2005	1155.6	131.1
303.15 K, x1 = 0.2995	1163.5	120.5
303.15 K, x1 = 0.3996	1172	111.6
303.15 K, x1 = 0.4991	1181	101.6
303.15 K, x1 = 0.601	1190.2	92.16
303.15 K, x1 = 0.7001	1200	83.12
303.15 K, x1 = 0.8	1210.2	74.61
303.15 K, x1 = 0.8987	1220.8	66.57
303.15 K, x1 = 1	1232	58.59
308.15 K, x1 = 0.1006	1144.4	110.3
308.15 K, x1 = 0.2005	1152.1	101.2
308.15 K, x1 = 0.2995	1160.1	93.37
308.15 K, x1 = 0.3996	1168.6	86.79
308.15 K, x1 = 0.4991	1177.4	79.34
308.15 K, x1 = 0.601	1186.7	72.34
308.15 K, x1 = 0.7001	1196.4	65.59
308.15 K, x1 = 0.8	1206.6	59.23
308.15 K, x1 = 0.8987	1217.2	53.19
308.15 K, x1 = 1	1228.3	47.16
313.15 K, x1 = 0.1006	1141	86.32
313.15 K, x1 = 0.2005	1148.6	79.47
313.15 K, x1 = 0.2995	1156.6	73.61
313.15 K, x1 = 0.3996	1165.1	68.66
313.15 K, x1 = 0.4991	1173.9	63.07
313.15 K, x1 = 0.601	1183.2	57.75
313.15 K, x1 = 0.7001	1192.8	52.63
313.15 K, x1 = 0.8	1203	47.79
313.15 K, x1 = 0.8987	1213.5	43.19
313.15 K, x1 = 1	1224.7	38.56
318.15 K, x1 = 0.1006	1137.6	68.62
318.15 K, x1 = 0.2005	1145.2	63.43
318.15 K, x1 = 0.2995	1153.1	58.96
318.15 K, x1 = 0.3996	1161.6	55.18
318.15 K, x1 = 0.4991	1170.4	50.91
318.15 K, x1 = 0.601	1179.7	46.8
318.15 K, x1 = 0.7001	1189.3	42.87
318.15 K, x1 = 0.8	1199.4	39.14
318.15 K, x1 = 0.8987	1209.9	35.56
318.15 K, x1 = 1	1221	31.98
323.15 K, x1 = 0.1006	1134.2	55.36
323.15 K, x1 = 0.2005	1141.7	51.35
323.15 K, x1 = 0.2995	1149.6	47.9
323.15 K, x1 = 0.3996	1158.1	44.99
323.15 K, x1 = 0.4991	1166.9	41.66
323.15 K, x1 = 0.601	1176.1	38.47
323.15 K, x1 = 0.7001	1185.8	35.41
323.15 K, x1 = 0.8	1195.8	32.48
323.15 K, x1 = 0.8987	1206.2	29.67
323.15 K, x1 = 1	1217.4	26.83
328.15 K, x1 = 0.1006	1130.8	45.26
328.15 K, x1 = 0.2005	1138.3	42.13
328.15 K, x1 = 0.2995	1146.2	39.43
328.15 K, x1 = 0.3996	1154.7	37.15
328.15 K, x1 = 0.4991	1163.4	34.53
328.15 K, x1 = 0.601	1172.6	32.02
328.15 K, x1 = 0.7001	1182.3	29.61
328.15 K, x1 = 0.8	1192.1	27.28
328.15 K, x1 = 0.8987	1202.7	25.04
328.15 K, x1 = 1	1213.8	22.77
333.15 K, x1 = 0.1006	1127.4	37.44
333.15 K, x1 = 0.2005	1134.9	34.97
333.15 K, x1 = 0.2995	1142.7	32.83
333.15 K, x1 = 0.3996	1151.3	31.04
333.15 K, x1 = 0.4991	1159.9	28.95
333.15 K, x1 = 0.601	1169.2	26.95
333.15 K, x1 = 0.7001	1178.7	25.03
333.15 K, x1 = 0.8	1188.6	23.15
333.15 K, x1 = 0.8987	1199.1	21.37
333.15 K, x1 = 1	1210.2	19.54
338.15 K, x1 = 0.1006	1124.1	31.31
338.15 K, x1 = 0.2005	1131.5	29.33
338.15 K, x1 = 0.2995	1139.3	27.63
338.15 K, x1 = 0.3996	1147.8	26.21
338.15 K, x1 = 0.4991	1156.5	24.53
338.15 K, x1 = 0.601	1165.7	22.92
338.15 K, x1 = 0.7001	1175.2	21.38
338.15 K, x1 = 0.8	1185.2	19.85
338.15 K, x1 = 0.8987	1195.5	18.4
338.15 K, x1 = 1	1206.6	16.92
343.15 K, x1 = 0.1006	1120.7	26.45
343.15 K, x1 = 0.2005	1128.1	24.83
343.15 K, x1 = 0.2995	1135.9	23.46
343.15 K, x1 = 0.3996	1144.4	22.3
343.15 K, x1 = 0.4991	1153	20.96
343.15 K, x1 = 0.601	1162.2	19.65
343.15 K, x1 = 0.7001	1171.7	18.4
343.15 K, x1 = 0.8	1181.6	17.19
343.15 K, x1 = 0.8987	1192	15.98
343.15 K, x1 = 1	1203	14.77
